Measurements taken from ChEMBL document CHEMBL1137745, “Computational modeling and surface plasmon resonance analyses in the assessment of peptide ligands interacting with fibrin gamma(312-324) epitope” (Eur J Med Chem, 2009).
pKd: −log10 of the molar value. Peptide text beside a SMILES is read from it.

Key:
[1] = Binding affinity to gamma (312-324) epitope of human fibrinogen measured at flow rate of 5 ul/min by Biacore X system
[2] = Binding affinity to gamma (312-324) epitope of human fibrinogen by Biacore X system
[3] = Binding affinity to gamma (312-324) epitope of human fibrinogen measured at flow rate of 30 ul/min by Biacore X system

Row | pKd [1] | pKd [2] | pKd [3] | Compound
1 | 4.28 | 4.46 | 4.79 | N=C(N)NCCC[C@H](NC(=O)[C@H](CC(=O)O)NC(=O)[C@@H](N)CCCCN)C(N)=O (H-Lys-Asp-Arg-NH2)
2 | 4.89 | 4.76 | 4.66 | N=C(N)NCCC[C@H](NC(=O)[C@H](CCC(=O)O)NC(=O)[C@@H](N)CCCCN)C(N)=O (H-Lys-Glu-Arg-NH2)
3 | 4.46 | 4.60 | 4.82 | NCCCC[C@H](NC(=O)[C@H](CCC(=O)O)NC(=O)[C@@H](N)CCCCN)C(N)=O (H-Lys-Glu-Lys-NH2)
4 | 4.52 | 4.63 | 4.77 | Ac-RDKDR-OH
5 | 6.52 | 6.60 | 6.70 | H-RDKDR-NH2
